Experimental data as given in article PMC12208134, “Structure-activity relationships of 1,5-dihydro-2H-benzo[b][1,4]diazepine-2,4(3H)-diones as inhibitors of Trypanosoma cruzi” (RSC medicinal chemistry, 2025).
≈ marks a conversion by molar mass, not a printed value. Where “and” joins values, the source holds several entries; their conditions need not be identical. Identical values can stand only once. Like-named read-outs stand apart in the source and are kept apart here.

Experiments:
intracellular T. cruzi = assay: T. cruzi washout assay; assay type: cell-based, Trypanosoma cruzi; settings: 25 x IC50 for 16 days, infected Vero cells
Protocol: For any hits identified and successfully triaged, the initial focus of hit-expansion is to identify compounds with a suitable profile to run in a washout assay.,[21] In this assay, intracellular T. cruzi are treated with high doses of compounds for an extended duration (25x IC50 for 8 – 16 days), followed by compound washout and assessment of parasite relapse over 60 days to assess ability to clear all parasites, including any persisters. […] Compound series with a profile equal to or better than benznidazole can then be progressed to an in vivo efficacy model of chronic Chagas disease with a high probability of success.
At this stage, we were keen to examine our options for progression into the T. cruzi washout assay, [12],[21] and decided to move forward with 2, 14 and 16 to give coverage across both chemotypes. […] After this dosing period, the compound was washed off the infected cells, and the host cell monolayer was monitored for egressed parasites. The first day egressed parasites were detected post washout was noted down as the relapse day. In this assay, posaconazole, which is known to be ineffective in the clinic, relapsed after 10 days and benznidazole, used as the bench-mark clinical compound, relapsed after 31 / 35 days (2 replicates). We were therefore looking for compounds that relapsed at an equivalent time to benznidazole, or later, to be considered worth pursuing further.
Intracellular T. cruzi washout assays were carried out with the Silvio X10/7 strain using the protocol previously described. ^1

T. cruzi trypomastigotes = system: T. cruzi trypomastigotes; design: method as in PMID 30001347; settings: cited from earlier work
[1] = system: intracellular T. cruzi amastigotes; assay: T. cruzi intracellular potency assay (high content imaging); assay type: cell-based, Trypanosoma cruzi; design: key to Max Effect (T. cruzi): % inhibition; 0% = DMSO control, 100% = 16 μM nifurtimox control; settings: for Emax / EC50 / IC50: Trypanosoma cruzi; for Emax / EC50 / Hill slope (T. cruzi) / Max Effect (T. cruzi) / pEC50 (T. cruzi): individual replicate; for Emax: read-out: Max Effect (T. cruzi); for EC50: read-out: pEC50 (T. cruzi) (converted); for IC50: intracellular amastigotes in Vero cells, 96 h, mean of N ≥ 3, read-out: T. cruzi pIC50 (converted)
Protocol: (§1) T. cruzi intracellular potency and rate-of-kill assay (high content imaging) ^1
(§2) Silvio X10/7 T. cruzi trypomastigotes were incubated at 37°C 5% CO2 with 1.6×10^7 Vero cells overnight at MOI10 in MEM media supplemented with 10% foetal calf serum (FCS). Extracellular parasites were removed by aspirating cell culture supernatant, and washing Vero monolayer with 10 ml serum-free MEM three times. Vero cells were then harvested by trypsinization and dispensed at 2×10^3 per well (50 μl in MEM/ 1% FCS) into 384 well plates pre-stamped with compounds in DMSO using automated washer/ dispenser EL406 and liquid handling software (Biotek). Plates were then incubated at 37°C in 5% CO2 for 96 h. For rate-of-kill determination, plates were incubated for 24h, 48h, 72h and 96h.
(§3) Plates were subsequently fixed with 4% formaldehyde for 20 min, permeabilised and stained with 5 μgml^-1 Hoechst 33342/ 0.1% Triton/ PBS Thimerosal 20 min. Automated imaging was performed by an Operetta high content imaging system using 20x objective (PerkinElmer). Images were analysed with an algorithm generated in Columbus (PerkinElmer) to segment Vero cell nuclei, Vero cell cytoplasm and parasite nuclei/ kinetoplasts, reporting number of amastigotes per Vero cell, percent infected Vero cells and total number of Vero cells. Compound potencies against T. cruzi parasites were calculated in IDBS Activitybase using percent infected Vero cells and Vero toxicity curves generated using number of host cells. All data was normalised to percent inhibition based on the raw data values for the 100% effect control (16 μM nifurtimox) and the 0% effect control (DMSO) on each plate at each time point. Curve fitting was carried out using a four-parameter equation as previously described. ^2 For rate-of-kill experiments the percent infected cells at each compound concentration was plotted against time.

host Vero cell = assay: Vero host cell toxicity in the intracellular T. cruzi assay; assay type: cell-based; design: key to Max Effect (Vero): % inhibition; 0% = DMSO control, 100% = 16 μM nifurtimox control; settings: for IC50: host Vero cell, read-out: Vero pIC50 (converted)
Protocol: as §1, §2, §3

Tc-CYP51 = Tc-CYP51 (Trypanosoma cruzi, UniProt Q7Z1V1); assay: T. cruzi sterol 14α-demethylase (CYP51) enzyme assay; assay type: biochemical; settings: for Tc CYP51 Hill / Emax / IC50: individual replicate; for Emax: read-out: Tc CYP51 Max Effect; for IC50: read-out: Tc CYP51 pIC50 (converted); for fold more potent against the parasites than against Tc-CYP51: urea series
Chain of Tc-CYP51 (Q7Z1V1 whole entry): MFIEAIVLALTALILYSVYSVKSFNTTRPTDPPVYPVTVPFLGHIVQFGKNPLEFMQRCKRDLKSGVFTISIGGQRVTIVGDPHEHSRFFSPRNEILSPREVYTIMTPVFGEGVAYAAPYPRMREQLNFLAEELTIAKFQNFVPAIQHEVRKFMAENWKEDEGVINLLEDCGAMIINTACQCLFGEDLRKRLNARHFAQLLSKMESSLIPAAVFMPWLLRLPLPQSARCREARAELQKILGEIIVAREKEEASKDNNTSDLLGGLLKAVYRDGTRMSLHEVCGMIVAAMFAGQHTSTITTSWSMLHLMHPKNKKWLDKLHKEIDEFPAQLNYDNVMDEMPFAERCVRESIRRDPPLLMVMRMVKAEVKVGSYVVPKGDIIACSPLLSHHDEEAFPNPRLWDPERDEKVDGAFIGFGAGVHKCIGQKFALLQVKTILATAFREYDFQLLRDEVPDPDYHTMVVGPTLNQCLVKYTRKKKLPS
Protocol: T. cruzi sterol 14α-demethylase (CYP51) enzyme assay
Potency against T. cruzi CYP51 was determined using a previously described fluorescence assay. Average potency for compound 1 was determined with three experimental replicates. Potencies in Fig.3 are from single experimental replicates. ^5

[2] = Kinetic aqueous solubility by CAD; assay type: physicochemical; settings: kinetic from dmso stock
[3] = Mouse liver microsomal intrinsic clearance; assay type: in vitro ADME
[4] = Human liver microsomal intrinsic clearance; assay type: in vitro ADME
[5] = ChromLogD pH7.4 (chromatographic hydrophobicity index), PFI, LLE; settings: for PFI: ChromLogDpH7.4 + no. aromatic rings; for chromatographic logD: pH 7.4
From the text: [23] Alongside PFI, LLE (ligand lipophilic efficiency, T. cruzi pIC50 - ChromLogDpH7.4) was also monitored to identify changes where the impact on potency was not driven by increasing lipophilicity.

[6] = Chlorocebus sabaeus, Vero, individual replicate
[7] = kinetic, CAD, read-out: Aqueous solubility

SMILES: O=C(Cn1ccnc1[N+](=O)[O-])NCc1ccccc1 [benznidazole, reference compound]
- relapse day post washout (intracellular T. cruzi): 31 days and 35 days
- activity against trypomastigotes (T. cruzi trypomastigotes): good activity

SMILES: CC1CS(=O)(=O)CCN1/N=C/c1ccc([N+](=O)[O-])o1 (centres unmarked) [nifurtimox]
- activity against trypomastigotes (T. cruzi trypomastigotes): good activity

SMILES: COc1ccc(CN2C(=O)C(N)C(=O)N(C3CC3)c3ccccc32)cc1 (centres unmarked) [Compound 19, 3-amino-1-cyclopropyl-5-(4-methoxybenzyl)-1,5-dihydro-2H-benzo[b][1,4]diazepine-2,4(3H)-dione]
- Emax [1]: 88%
- EC50 [1]: 5.01 µM
- IC50 [1]: 3.98 µM
- Hill slope (T. cruzi) [1]: 14.2 and 4.9 and 13.0 and 5.9
- Max Effect (T. cruzi) [1]: 87
- pEC50 (T. cruzi) [1]: 5.5 and 5.4
- EC50 (host Vero cell; [6]): > 50.1 µM
- Emax (host Vero cell; Chlorocebus sabaeus, Vero, individual replicate, read-out: Max Effect (Vero)): 18%
- IC50 (host Vero cell; Chlorocebus sabaeus): > 50.1 µM
- Max Effect (Vero) (host Vero cell; individual replicate): 15 and 17 and 14
- Tc CYP51 Hill (Tc-CYP51): 1.0
- Emax (Tc-CYP51): 94%
- IC50 (Tc-CYP51): 0.316 µM
- solubility [2, 7]: > 442 µM
- MLM CLi ([3]; mouse liver microsomes): 11.8 mL/min/g
- HLM CLi ([4]; human liver microsomes): <0.4 mL/min/g
- PFI [5]: 5.2
- chromatographic logD [5]: 3.2

SMILES: COc1ccc(CN2C(=O)C(N)C(=O)N(c3ccc(F)cc3)c3ccccc32)cc1 (centres unmarked) [Compound 17, 3-amino-1-(4-fluorophenyl)-5-(4-methoxybenzyl)-1,5-dihydro-2H-benzo[b][1,4]diazepine-2,4(3H)-dione]
- Emax [1]: 88%
- EC50 [1]: 0.501 µM
- IC50 [1]: 0.631 µM
- Hill slope (T. cruzi) [1]: 24.4 and 25.4 and 12.5 and 3.5
- Max Effect (T. cruzi) [1]: 87 and 83
- pEC50 (T. cruzi) [1]: 6.2 and 6.0
- EC50 (host Vero cell; [6]): > 50.1 µM
- IC50 (host Vero cell; Chlorocebus sabaeus): > 50.1 µM
- Max Effect (Vero) (host Vero cell; individual replicate): 26 and 8 and 14 and 23
- Tc CYP51 Hill (Tc-CYP51): 1.8
- Emax (Tc-CYP51): 95%
- IC50 (Tc-CYP51): 0.2 µM
- solubility [2, 7]: > 410 µM
- MLM CLi ([3]; mouse liver microsomes): 10.6 mL/min/g
- HLM CLi ([4]; human liver microsomes): <0.4 mL/min/g
- PFI [5]: 7.4
- chromatographic logD [5]: 4.4

SMILES: CC(C)N(C(=O)CN1C(=O)C(N)C(=O)N(c2ccccc2)c2ccccc21)c1ccccc1 (racemic) [Compound 14, 2-(3-amino-2,4-dioxo-5-phenyl-2,3,4,5-tetrahydro-1H-benzo[b][1,4]diazepin-1-yl)-N-isopropyl-N-phenylacetamide]
- Emax [1]: 89%
- IC50 [1]: 0.2 µM
- Hill slope (T. cruzi) [1]: 4.0 and 12.9 and 3.7 and 29.0 and 4.4 and 2.2 and 5.2
- Max Effect (T. cruzi) [1]: 87 and 86 and 88 and 93 and 92 and 82
- pEC50 (T. cruzi) [1]: 6.6 and 6.8 and 7.0 and 6.7
- EC50 (host Vero cell; [6]): > 50.1 µM
- IC50 (host Vero cell; Chlorocebus sabaeus): > 50.1 µM
- Max Effect (Vero) (host Vero cell; individual replicate): -6.63 and 8 and -0.0425 and 13 and 41 and 1.19 and 11
- pEC50 (Vero) (host Vero cell; individual replicate): < 4.3
- solubility [2]: > 500 µM
- MLM CLi ([3]; mouse, microsomes): 3.4 mL/min/g
- HLM CLi ([4]; human, microsomes): <0.4 mL/min/g
- PFI [5]: 8.0
- chromatographic logD [5]: 5
- relapse day post washout (intracellular T. cruzi): 6 days

SMILES: COc1ccc(NC(=O)NC2C(=O)Nc3cccc(F)c3N(c3ccccc3)C2=O)cc1 (centres unmarked) [Compound 9, 1-(9-fluoro-2,4-dioxo-1-phenyl-2,3,4,5-tetrahydro-1H-benzo[b][1,4]diazepin-3-yl)-3-(4-methoxyphenyl)urea]
- Emax [1]: 91%
- EC50 [1]: 0.501 µM
- IC50 [1]: 0.398 µM
- Hill slope (T. cruzi) [1]: 5.2 and 12.9 and 2.3 and 2.7
- Max Effect (T. cruzi) [1]: 89 and 94
- pEC50 (T. cruzi) [1]: 6.5 and 6.4
- EC50 (host Vero cell; [6]): > 50.1 µM
- IC50 (host Vero cell; Chlorocebus sabaeus): > 50.1 µM
- Max Effect (Vero) (host Vero cell; individual replicate): 6 and 11 and -2.3 and 8
- Tc CYP51 Hill (Tc-CYP51): 1.3
- Emax (Tc-CYP51): 90%
- IC50 (Tc-CYP51): 10 µM
- fold more potent against the parasites than against Tc-CYP51 (Tc-CYP51): 10 fold
- solubility [2, 7]: < 1 µM
- MLM CLi ([3]; mouse liver microsomes): <0.5 mL/min/g
- HLM CLi ([4]; human liver microsomes): <0.4 mL/min/g
- PFI [5]: 7.2
- chromatographic logD [5]: 4.2

SMILES: COc1ccc(CN2C(=O)C(N)C(=O)N(c3ccc(OC)cc3)c3ccccc32)cc1 (centres unmarked) [Compound 16, 3-amino-1-(4-methoxybenzyl)-5-(4-methoxyphenyl)-1,5-dihydro-2H-benzo[b][1,4]diazepine-2,4(3H)-dione]
- Emax [1]: 86%
- EC50 [1]: 0.316 µM
- IC50 [1]: 0.316 µM
- Hill slope (T. cruzi) [1]: 3.7 and 4.5 and 5.7 and 13.7
- Max Effect (T. cruzi) [1]: 81 and 84 and 91
- pEC50 (T. cruzi) [1]: 6.6
- EC50 (host Vero cell; [6]): > 50.1 µM
- IC50 (host Vero cell; Chlorocebus sabaeus): > 50.1 µM
- Max Effect (Vero) (host Vero cell; individual replicate): 21 and 44 and 30 and 5.55
- solubility [2]: > 270 µM
- MLM CLi ([3]; mouse, microsomes): 7.6 mL/min/g
- HLM CLi ([4]; human, microsomes): <0.4 mL/min/g
- PFI [5]: 7.2
- chromatographic logD [5]: 4.2
- relapse day post washout (intracellular T. cruzi): 6 days

SMILES: COc1ccc(NC(=O)NC2C(=O)Nc3ccccc3N(c3ccccc3)C2=O)cc1 (centres unmarked) [Compound 2, 1-(2,4-dioxo-1-phenyl-2,3,4,5-tetrahydro-1H-benzo[b][1,4]diazepin-3-yl)-3-(4-methoxyphenyl)urea]
- Emax [1]: 89%
- IC50 [1]: 1.26 µM
- Hill slope (T. cruzi) [1]: 2.1 and 3.4 and 3.0 and 9.3 and 1.5 and 2.5 and 0.659
- Max Effect (T. cruzi) [1]: 99 and 83 and 84 and 94 and 93 and 92 and 88
- pEC50 (T. cruzi) [1]: 5.8 and 5.7 and 6.3 and 5.9
- EC50 (host Vero cell; [6]): > 50.1 µM
- IC50 (host Vero cell; Chlorocebus sabaeus): > 50.1 µM
- Max Effect (Vero) (host Vero cell; individual replicate): 26 and 22 and 25 and -6 and 27 and 29 and 1.42 and 36
- Tc CYP51 Hill (Tc-CYP51): 1.1
- Emax (Tc-CYP51): 95%
- IC50 (Tc-CYP51): 7.94 µM
- fold more potent against the parasites than against Tc-CYP51 (Tc-CYP51): 10 fold
- solubility [2, 7]: 64 µM (≈ 26.7 µg/mL)
- MLM CLi ([3]; mouse liver microsomes): <0.5 mL/min/g
- HLM CLi ([4]; human liver microsomes): <0.4 mL/min/g
- PFI [5]: 7.0
- chromatographic logD [5]: 4
- relapse day post washout (intracellular T. cruzi): 10 days
